Laboratory results from ChEMBL document CHEMBL1201862, “PubChem BioAssay data set” (2004).
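A five-concentration, 48-hour dose response in 96-well plates underlies each endpoint, interpolated linearly between surrounding concentrations. At the GI50, growth is halved.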 Active and inactive are the calls of the source. No stated cut-off is given here; in the data, active = GI50 up to about 1.1 µM and inactive = higher.

How the values were obtained:
Experiment in all cases: growth of human tumour cells (NCI), 48 h
[1] = test system: 786-0
[2] = test system: A498
[3] = test system: A549
[4] = test system: ACHN
[5] = test system: CAKI-1
[6] = test system: CCRF-CEM
[7] = test system: COLO 205
[8] = test system: DU-145
[9] = test system: EKVX
[10] = test system: HCC 2998
[11] = test system: HCT-116
[12] = test system: HCT-15
[13] = test system: HL-60
[14] = test system: HOP-62
[15] = test system: HOP-92
[16] = test system: HT-29
[17] = test system: Hs-578T
[18] = test system: IGROV-1
[19] = test system: K562
[20] = test system: KM12
[21] = test system: LOX IMVI
[22] = test system: M14
[23] = test system: MCF7
[24] = test system: MDA-MB-231
[25] = test system: MDA-MB-435
[26] = test system: MDA-N
[27] = test system: MOLT-4
[28] = test system: Malme-3M
[29] = test system: NCI-H226
[30] = test system: NCI-H23
[31] = test system: NCI-H460
[32] = test system: NCI-H522
[33] = test system: NCI/ADR-RES
[34] = test system: OVCAR-3
[35] = test system: OVCAR-4
[36] = test system: OVCAR-5
[37] = test system: OVCAR-8
[38] = test system: PC-3
[39] = test system: RPMI-8226
[40] = test system: RXF 393
[41] = test system: SF-268
[42] = test system: SF-295
[43] = test system: SF-539
[44] = test system: SK-MEL-28
[45] = test system: SK-MEL-2
[46] = test system: SK-MEL-5
[47] = test system: SK-OV-3
[48] = test system: SN12C
[49] = test system: SNB-19
[50] = test system: SNB-75
[51] = test system: SR
[52] = test system: SW-620
[53] = test system: T47D
[54] = test system: TK-10
[55] = test system: U-251
[56] = test system: UACC-257
[57] = test system: UACC-62
[58] = test system: UO-31

Measured: GI50

CC(=O)/C(=C/NC(=S)Nc1ccccc1)C(=O)Nc1ccccc1C
> 100 µM: [12]
inactive: [1] > 100 µM | [2] > 100 µM | [3] > 100 µM | [4] > 100 µM | [5] 40.9 µM | [6] > 100 µM | [7] > 100 µM | [8] > 100 µM | [9] > 100 µM | [10] > 100 µM | [11] > 100 µM | [13] 84.9 µM | [14] > 100 µM | [15] 99.1 µM | [16] 77.8 µM | [17] > 100 µM | [18] > 100 µM | [19] 96.2 µM | [20] > 100 µM | [21] > 100 µM | [22] > 100 µM | [23] > 100 µM | [24] 29.4 µM | [25] > 100 µM | [26] > 100 µM | [27] > 100 µM | [28] > 100 µM | [29] > 100 µM | [30] > 100 µM | [31] > 100 µM | [32] > 100 µM | [33] > 100 µM | [34] 61.1 µM | [35] > 100 µM | [36] > 100 µM | [37] > 100 µM | [38] > 100 µM | [39] > 100 µM | [40] > 100 µM | [41] 91 µM | [42] > 100 µM | [43] > 100 µM | [44] > 100 µM | [45] > 100 µM | [46] 61.2 µM | [47] > 100 µM | [48] > 100 µM | [49] > 100 µM | [50] 49.9 µM | [51] > 100 µM | [52] > 100 µM | [53] 52.4 µM | [54] > 100 µM | [55] > 100 µM | [56] > 100 µM | [57] > 100 µM | [58] 41.8 µM

Nc1ccc2c(=O)cc(-c3ccc(Br)s3)[nH]c2n1
2.26 µM: [12]
active: [19] 0.522 µM | [20] 0.673 µM | [25] 0.32 µM | [26] 0.323 µM | [51] 0.267 µM | [52] 1.12 µM
inactive: [1] 4.02 µM | [2] 3.21 µM | [3] 5.5 µM | [4] 7.16 µM | [5] 4.46 µM | [6] 2.37 µM | [7] 2.5 µM | [8] 3.93 µM | [9] 7.59 µM | [10] 3.39 µM | [11] 3.02 µM | [13] 2.41 µM | [14] 4.86 µM | [15] 12.7 µM | [16] 4.74 µM | [17] 2.36 µM | [18] 3.85 µM | [21] 4.69 µM | [22] 3.12 µM | [23] 2.15 µM | [24] 16.8 µM | [27] 2.33 µM | [28] 12.4 µM | [29] 2.15 µM | [30] 2.22 µM | [31] 4.16 µM | [32] 1.42 µM | [33] 2.6 µM | [34] 3.18 µM | [35] > 56.6 µM | [36] 11.6 µM | [37] 3.52 µM | [38] 2.74 µM | [39] 1.89 µM | [40] 3.71 µM | [41] 6.22 µM | [42] 2.83 µM | [43] 2.16 µM | [44] 3.08 µM | [45] > 100 µM | [46] 1.35 µM | [47] 3.94 µM | [48] 6.55 µM | [49] 4.63 µM | [50] 2.47 µM | [53] 4.16 µM | [54] 11.7 µM | [55] 3.61 µM | [56] > 27.7 µM | [57] 3.02 µM | [58] 2.64 µM
